Laboratory results published in patent US20190367516A1 (Bayer Pharma Aktiengesellschaft, priority 2015, published 2019).
Like-named read-outs stand apart in the source and are kept apart here.

Tests used:
human M2 receptor [1] = biological target: T1, human M2 receptor (Homo sapiens, UniProt P08172); conditions: for Emax: read-out: Efficiency, boosting of the acetylcholine effect at EC20 acetylcholine concentration; for Efficiency: boosting of the acetylcholine effect at EC20 acetylcholine concentration
T1 sequence (P08172 1-466): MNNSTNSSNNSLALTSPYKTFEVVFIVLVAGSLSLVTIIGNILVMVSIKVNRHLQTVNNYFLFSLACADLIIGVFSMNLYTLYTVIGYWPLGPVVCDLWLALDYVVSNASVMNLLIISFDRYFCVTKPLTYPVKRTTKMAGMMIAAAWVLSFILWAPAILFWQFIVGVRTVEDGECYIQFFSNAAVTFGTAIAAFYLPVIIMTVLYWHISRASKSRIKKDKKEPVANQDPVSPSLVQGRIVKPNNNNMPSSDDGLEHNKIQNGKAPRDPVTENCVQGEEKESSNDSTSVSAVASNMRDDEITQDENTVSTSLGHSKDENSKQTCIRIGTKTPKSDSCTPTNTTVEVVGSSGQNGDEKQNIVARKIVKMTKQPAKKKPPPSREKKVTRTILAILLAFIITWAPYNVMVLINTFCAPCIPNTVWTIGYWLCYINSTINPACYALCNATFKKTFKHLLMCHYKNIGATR

human M2 receptor [2] = biological target: T1, human M2 receptor; type: cell-based; conditions: α >1 = positive cooperativity
[3] = Receptor activity EC50, M2-GIRK1/4 activation test, acetylcholine at EC20, allosteric potency, in some cases mean values from two or more determinations
[4] = shift in the acetylcholine dose-response curve (Allosteric EC50 shift, GraphPad PRISM)
[5] = Receptor activity EC50, allosteric potency at EC20 acetylcholine, M2-GIRK1/4 reporter cells, in some cases mean of two or more determinations
[6] = shift of acetylcholine dose-response curve (Allosteric EC50 shift)

EC50 (human M2 receptor [1]; [3]) [nM]	Cooperativity (alpha factor) (human M2 receptor [2]; [4])	EC50 (human M2 receptor [1]; [5]) [nM]	Emax (human M2 receptor [1]; M2-GIRK1/4 reporter cells) [%]	Cooperativity (alpha factor) (human M2 receptor [2]; [6])	Efficiency (human M2 receptor [1]; M2-GIRK1/4 reporter cells) [%]	Structure (SMILES)
24	30	–	–	–	–	COC(=O)N1CCN(c2ccc3c(=O)c(C(=O)NC45CC6CC(CC(C6)C4)C5)cn(-c4ccc(F)cc4F)c3n2)CC1 [Example 4, Methyl 4-[8-(2,4-difluorophenyl)-5-oxo-6-(tricyclo[3.3.1.1^3,7]dec-1-ylcarbamoyl)-5,8-dihydro-1,8-naphthyridin-2-yl]piperazine-1-carboxylate]
18	36	–	–	–	–	O=C(NC12CC(C(F)(F)F)(C1)C2)c1cn(-c2c(F)cc(F)cc2F)c2nc(N3C[C@@H](O)[C@H](O)C3)ccc2c1=O [Example 371, 7-[(3R,4R)-3,4-Dihydroxypyrrolidin-1-yl]-4-oxo-N-[3-(trifluoromethyl)bicyclo[1.1.1]pent-1-yl]-1-(2,4,6-trifluorophenyl)-1,4-dihydro-1,8-naphthyridine-3-carboxamide]
–	–	19	99.5	22	–	C[C@H](NC(=O)c1cn(-c2c(F)cc(F)cc2Cl)c2nc(N3C[C@@H](O)CC3=O)ccc2c1=O)C(F)(F)F [Example 409, 1-(2-Chloro-4,6-difluorophenyl)-7-[(4S)-4-hydroxy-2-oxopyrrolidin-1-yl]-4-oxo-N-[(2S)-1,1,1-trifluoropropan-2-yl]-1,4-dihydro-1,8-naphthyridine-3-carboxamide]
–	–	28	78	20	–	C[C@@H](O)CN(C)c1ccc2c(=O)c(C(=O)N[C@@H](C3CC3)C(F)(F)F)cn(-c3c(F)cc(F)cc3F)c2n1 [Example 494]
–	–	7	–	15	99.0	CC[C@H](NC(=O)c1cn(-c2c(F)cc(F)cc2Cl)c2nc(N3CCC(C)C3=O)ccc2c1=O)C(F)(F)F (single isomer, unassigned) [Example 424]
113	9	–	–	–	–	CC(C)(NC(=O)c1cn(-c2ccc(F)cc2F)c2nc(N3CC[C@@H](OC(F)F)C3)ccc2c1=O)c1c(F)cccc1F [Example 188, 7-[(3R)-3-(Difluoromethoxy)pyrrolidin-1-yl]-1-(2,4-difluorophenyl)-N-[2-(2,6-difluorophenyl)propan-2-yl]-4-oxo-1,4-dihydro-1,8-naphthyridine-3-carboxamide]
83	31	–	–	–	–	O=C(NC(c1c(F)cccc1F)C(F)(F)F)c1cn(-c2ccc(F)cc2F)c2nc(N3CCC(O)CC3=O)ccc2c1=O (single isomer, unassigned) [Example 255, 1-(2,4-Difluorophenyl)-N-[1-(2,6-difluorophenyl)-2,2,2-trifluoroethyl]-7-[4-hydroxy-2-oxopiperidin-1-yl]-4-oxo-1,4-dihydro-1,8-naphthyridine-3-carboxamide]
–	–	68	96.5	25	–	CC[C@@H](NC(=O)c1cn(-c2ccc(F)cc2F)c2nc(N3C[C@@H](O)[C@@H](O)C3)ccc2c1=O)C(F)(F)F [Example 639, 1-(2,4-Difluorophenyl)-7-[(3R,4S)-3,4-dihydroxypyrrolidin-1-yl]-4-oxo-N-[(2R)-1,1,1-trifluorobutan-2-yl]-1,4-dihydro-1,8-naphthyridine-3-carboxamide]
96	20	–	–	–	–	CCC(NC(=O)c1cn(-c2ccc(F)cc2F)c2nc(N3CCN(C(=O)OC)CC3)ccc2c1=O)C(F)(F)F (racemic) [Example 23, rac-Methyl 4-{8-(2,4-difluorophenyl)-5-oxo-6-[(1,1,1-trifluorobutan-2-yl)carbamoyl]-5,8-dihydro-1,8-naphthyridin-2-yl}piperazine-1-carboxylate]
40	11	–	–	–	–	CC1(F)CCN(c2ccc3c(=O)c(C(=O)NC45CC6CC(CC(C6)C4)C5)cn(-c4ccc(F)cc4F)c3n2)C1 (racemic) [Example 9, rac-1-(2,4-Difluorophenyl)-7-(3-fluoro-3-methylpyrrolidin-1-yl)-4-oxo-N-(tricyclo[3.3.1.1^3,7]dec-1-yl)-1,4-dihydro-1,8-naphthyridine-3-carboxamide]
35	18	–	–	–	–	O=C(N[C@H](c1ccccc1Cl)C(F)(F)F)c1cn(-c2ccc(F)cc2F)c2nc(N3CCCC(O)C3=O)ccc2c1=O (single isomer, unassigned) [Example 207]
23	53	–	–	–	–	O=C(NC(c1c(F)cccc1F)C(F)(F)F)c1cn(-c2ccc(F)cc2F)c2nc(N3C[C@@H](O)CC3=O)ccc2c1=O (single isomer, unassigned) [Example 246]
–	–	4	95	62	–	O=C(NC(c1ccccc1Cl)C(F)(F)F)c1cn(-c2c(F)cc(F)cc2F)c2nc(N3C[C@@H](O)[C@H](O)C3)ccc2c1=O (single isomer, unassigned) [Example 561]
155	8	–	–	–	–	CN(C)c1ccc2c(=O)c(C(=O)NCc3c(F)cccc3C(F)(F)F)cn(-c3ccc(F)cc3F)c2n1 [Example 60, 1-(2,4-Difluorophenyl)-7-(dimethylamino)-N-[2-fluoro-6-(trifluoromethyl)benzyl]-4-oxo-1,4-dihydro-1,8-naphthyridine-3-carboxamide]
16	25	–	–	–	–	O=C(N[C@@H](C1CC1)C(F)(F)F)c1cn(-c2c(F)cc(F)cc2F)c2nc(N3CCCN(CCO)C3=O)ccc2c1=O [Example 364, N-[(1 S)-1-Cyclopropyl-2,2,2-trifluoroethyl]-7-[3-(2-hydroxyethyl)-2-oxotetrahydropyrimidin-1(2H)-yl]-4-oxo-1-(2,4,6-trifluorophenyl)-1,4-dihydro-1,8-naphthyridine-3-carboxamide]
113	13	–	–	–	–	CC[C@@H](NC(=O)c1cn(-c2ccc(F)cc2F)c2nc(N3CCC(C)(OC)C3=O)ccc2c1=O)C(F)(F)F (single isomer, unassigned) [Example 198]
52	13	–	–	–	–	CC(COC(F)(F)F)NC(=O)c1cn(-c2ccc(F)cc2F)c2nc(N3CC[C@H](F)C3)ccc2c1=O (single isomer, unassigned) [Example 229]
9	24	–	–	–	–	CC[C@@H](NC(=O)c1cn(-c2c(F)cccc2F)c2nc(N3CC4CC4(O)C3)ccc2c1=O)C(F)(F)F (mixture of isomers) [Example 304, 1-(2,6-Difluorophenyl)-7-[1-hydroxy-3-azabicyclo[3.1.0]hex-3-yl]-4-oxo-N-[(2R)-1,1,1-trifluorobutan-2-yl]-1,4-dihydro-1,8-naphthyridine-3-carboxamide]
147	30	–	–	–	–	CC[C@H](NC(=O)c1cn(-c2ccc(F)cc2F)c2nc(N3C[C@@H](C(=O)OC)OC3=O)ccc2c1=O)C(F)(F)F [Example 258, Methyl (5S)-3-[8-(2,4-difluorophenyl)-5-oxo-6-{[(2S)-1,1,1-trifluorobutan-2-yl]carbamoyl}-5,8-dihydro-1,8-naphthyridin-2-yl]-2-oxo-1,3-oxazolidine-5-carboxylate]
120	12	–	–	–	–	CC(COC(F)(F)F)NC(=O)c1cn(-c2ccc(F)cc2F)c2nc(N(C)C)ccc2c1=O (racemic) [Example 231, 1-(2,4-Difluorophenyl)-7-(dimethylamino)-4-oxo-N-[1-(trifluoromethoxy)propan-2-yl]-1,4-dihydro-1,8-naphthyridine-3-carboxamide]
–	–	13	100	25	–	C[C@@H]1CN(c2ccc3c(=O)c(C(=O)NC(C)(C)C(F)F)cn(-c4c(F)cc(F)cc4F)c3n2)C(=O)N1 [Example 452, N-(1,1-Difluoro-2-methylpropan-2-yl)-7-[(4R)-4-methyl-2-oxoimidazolidin-1-yl]-4-oxo-1-(2,4,6-trifluorophenyl)-1,4-dihydro-1,8-naphthyridine-3-carboxamide]
129	26	–	–	–	–	CC[C@H](NC(=O)c1cn(-c2ccc(F)cc2F)c2nc(NCCF)ccc2c1=O)C(F)(F)F [Example 87, 1-(2,4-Difluorophenyl)-7-[(2-fluoroethyl)amino]-4-oxo-N-[(2S)-1,1,1-trifluorobutan-2-yl]-1,4-dihydro-1,8-naphthyridine-3-carboxamide]
–	–	9	–	37	100.0	O=C(N[C@@H](C1CC1)C(F)(F)F)c1cn(-c2c(F)cc(F)cc2Cl)c2nc(N3C[C@@H](O)[C@H](O)C3)ccc2c1=O (single isomer, unassigned) [Example 548]
97	8	–	–	–	–	CC(COC(F)(F)F)NC(=O)c1cn(-c2ccc(F)cc2F)c2nc(N3CCCC3)ccc2c1=O (racemic) [Example 232, 1-(2,4-Difluorophenyl)-4-oxo-7-(pyrrolidin-1-yl)-N-[1-(trifluoromethoxy)propan-2-yl]-1,4-dihydro-1,8-naphthyridine-3-carboxamide]
